Measurements reported in article PMC4300089, “Structure-Guided Design of Selective Epac1 and Epac2 Agonists” (PLoS Biology, 2015).
Where a chain is given by its changes, count along the chain named. Where “and” joins values, the source holds several entries; their conditions need not be identical. Equal entries are not always repeated.

Tests used:
Format in all cases: biochemical
Epac2^Δ280 = biological target: T1, Epac2^Δ280 (Mus musculus, UniProt Q9EQZ6); test: Epac activation assay (Rap1B•mGDP fluorescence nucleotide exchange), Epac2^Δ280; details: for AC50 / Rel. kmax: Epac2^Δ280; for Rel. kmax: maximal activity relative to cAMP
T1 construct: made in house
T1 sequence (Q9EQZ6 281-993 isoform Q9EQZ6-3): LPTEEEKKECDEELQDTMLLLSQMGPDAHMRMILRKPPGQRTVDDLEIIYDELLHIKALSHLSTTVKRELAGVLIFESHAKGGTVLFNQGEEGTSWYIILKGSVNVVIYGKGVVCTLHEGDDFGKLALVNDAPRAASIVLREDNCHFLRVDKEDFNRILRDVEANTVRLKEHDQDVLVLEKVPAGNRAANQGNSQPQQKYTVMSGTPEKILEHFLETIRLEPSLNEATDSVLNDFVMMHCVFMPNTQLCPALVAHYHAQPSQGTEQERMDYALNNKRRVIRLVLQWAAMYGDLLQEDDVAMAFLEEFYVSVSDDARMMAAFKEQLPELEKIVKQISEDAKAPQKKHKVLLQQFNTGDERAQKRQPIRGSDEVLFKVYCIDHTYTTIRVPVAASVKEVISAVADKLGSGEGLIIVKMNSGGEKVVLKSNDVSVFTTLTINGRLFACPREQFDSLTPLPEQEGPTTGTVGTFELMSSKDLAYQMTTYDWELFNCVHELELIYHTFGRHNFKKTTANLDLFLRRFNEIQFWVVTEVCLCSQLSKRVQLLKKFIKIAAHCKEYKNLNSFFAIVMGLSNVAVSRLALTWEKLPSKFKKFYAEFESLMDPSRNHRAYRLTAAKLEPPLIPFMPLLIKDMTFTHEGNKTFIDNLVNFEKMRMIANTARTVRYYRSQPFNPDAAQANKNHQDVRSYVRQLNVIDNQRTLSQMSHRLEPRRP
Protocol: (§1) Murine Epac2 was used as all previous structural studies were performed with it.
(§2) The activity of Epac was determined by a fluorescence assay. […] The fluorescence intensity of Rap1B•mGDP is approximately twice that of free mGDP, and thus, nucleotide exchange can be observed as a decay in fluorescence upon the addition of excess unlabeled GDP.

PKA-Iβ = biological target: T2, PKA-Iβ (Homo sapiens, UniProt P31321); test: PKA activity assay, PKA-Iβ; details: for A (PKA activity): PKAIβ
T2 construct: made in house
Protocol: The recombinant human PKA catalytic subunit (Cα1) and the four human PKA regulatory subunits (RIα, RIβ, RIIα, RIIβ) were expressed, purified, and characterized as described. […] PKA holoenzymes were formed by mixing the R- and C-subunit at a molar ratio of 1.2:1 and extensive dialysis against 20 mM MOPS (pH 7.0), 150 mM NaCl, 2.5 mM β-mercaptoethanol, supplemented with 1 mM ATP and 10 mM MgCl2 for PKA-I at 4°C overnight. PKA holoenzymes were used at about 20 nM for the activation assay. The apparent activation constants (Kact) were determined by fitting the concentration-dependent activity to a sigmoid dose-response model.

Epac2^Δ280,K450E = biological target: T3, Epac2^Δ280,K450E (Mus musculus, UniProt Q9EQZ6, K468E); test: Epac activation assay, Epac2 K450E mutant
T3 construct: made in house
T3 sequence (Q9EQZ6 281-993 isoform Q9EQZ6-3 K450E): T1 sequence (Q9EQZ6 281-993 isoform Q9EQZ6-3) with K170E
Protocol: as §1, §2

T2 sequence (P31321 whole entry): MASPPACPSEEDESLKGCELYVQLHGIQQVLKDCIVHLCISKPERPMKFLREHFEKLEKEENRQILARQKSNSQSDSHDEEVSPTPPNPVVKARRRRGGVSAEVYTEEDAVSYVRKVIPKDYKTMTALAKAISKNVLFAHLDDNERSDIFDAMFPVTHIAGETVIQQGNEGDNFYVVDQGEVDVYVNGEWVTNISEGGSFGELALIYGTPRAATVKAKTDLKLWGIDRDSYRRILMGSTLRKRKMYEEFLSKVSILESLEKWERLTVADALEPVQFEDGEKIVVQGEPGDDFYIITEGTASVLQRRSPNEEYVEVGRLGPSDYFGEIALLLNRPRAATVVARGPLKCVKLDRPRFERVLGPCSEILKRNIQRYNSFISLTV

## Cc1ccc(CSc2nc3c(N)ncnc3n2[C@@H]2O[C@@H]3CO[P@](O)(=S)O[C@H]3[C@H]2O)cc1 [S-230, Sp-8-pMeBnT-cAMPS]
Epac2^Δ280; 0.01 μM compound
  kobs: 3.1e-05 s⁻¹
Epac2^Δ280; 0.03 μM compound
  kobs: 5.1e-05 s⁻¹
Epac2^Δ280; 0.04 μM compound
  kobs: 5.8e-05 s⁻¹
Epac2^Δ280; 0.05 μM compound
  kobs: 6.5e-05 s⁻¹
Epac2^Δ280; 0.06 μM compound
  kobs: 6.9e-05 s⁻¹
Epac2^Δ280; 0.07 μM compound
  kobs: 7.9e-05 s⁻¹
Epac2^Δ280; 0.08 μM compound
  kobs: 8.9e-05 s⁻¹
Epac2^Δ280; 0.1 μM compound
  kobs: 0.000108 s⁻¹
Epac2^Δ280; 0.2 μM compound
  kobs: 0.000191 s⁻¹
Epac2^Δ280; 0.3 μM compound
  kobs: 0.000259 s⁻¹
Epac2^Δ280; 0.4 μM compound
  kobs: 0.000337 s⁻¹
Epac2^Δ280; 0.5 μM compound
  kobs: 0.000361 s⁻¹
Epac2^Δ280; 0.6 μM compound
  kobs: 0.000448 s⁻¹
Epac2^Δ280; 0.7 μM compound
  kobs: 0.000484 s⁻¹
Epac2^Δ280; 0.8 μM compound
  kobs: 0.000517 s⁻¹
Epac2^Δ280; 1 μM compound
  kobs: 0.000599 s⁻¹
Epac2^Δ280; 2 μM compound
  kobs: 0.000852 s⁻¹
Epac2^Δ280; 3 μM compound
  kobs: 0.00104 s⁻¹
Epac2^Δ280; 4 μM compound
  kobs: 0.00107 s⁻¹
Epac2^Δ280; 5 μM compound
  kobs: 0.00111 s⁻¹
Epac2^Δ280; 6 μM compound
  kobs: 0.00117 s⁻¹
Epac2^Δ280; 7 μM compound
  kobs: 0.00124 s⁻¹
Epac2^Δ280; 8 μM compound
  kobs: 0.00123 s⁻¹
Epac2^Δ280; 10 μM compound
  kobs: 0.00132 s⁻¹
Epac2^Δ280; 20 μM compound
  kobs: 0.00148 s⁻¹
Epac2^Δ280; 30 μM compound
  kobs: 0.00149 s⁻¹
Epac2^Δ280; 40 μM compound
  kobs: 0.00149 s⁻¹
Epac2^Δ280; 50 μM compound
  kobs: 0.00145 s⁻¹
Epac2^Δ280; 60 μM compound
  kobs: 0.00145 s⁻¹
Epac2^Δ280; 70 μM compound
  kobs: 0.00142 s⁻¹
Epac2^Δ280; 80 μM compound
  kobs: 0.00143 s⁻¹
Epac2^Δ280; 100 μM compound
  kobs: 0.00145 s⁻¹
Epac2^Δ280
  AC50: 70 nM
  Rel. kmax: 6.4
PKA-Iβ; concentration 1.00E+01 μM
  A (PKA activity): 2.81 U/mg
PKA-Iβ; concentration 1.00E-01 μM
  A (PKA activity): 5.21 U/mg
PKA-Iβ; concentration 1.00E-03 μM
  A (PKA activity): 4.71 U/mg
PKA-Iβ; concentration 1.00E-05 μM
  A (PKA activity): 4.53 U/mg
PKA-Iβ; concentration 2.50E+02 μM
  A (PKA activity): 3.19 U/mg

## Nc1ncnc2c1ncn2C1OC2COP(O)(=S)OC2C1O (centres unmarked) [S-000, Sp-cAMPS]
Epac2^Δ280; 0.01 μM compound
  kobs: 2.4e-05 s⁻¹
Epac2^Δ280; 0.05 μM compound
  kobs: 3.7e-05 s⁻¹
Epac2^Δ280; 0.08 μM compound
  kobs: 4.4e-05 s⁻¹
Epac2^Δ280; 0.1 μM compound
  kobs: 4.8e-05 s⁻¹
Epac2^Δ280; 0.2 μM compound
  kobs: 7.3e-05 s⁻¹
Epac2^Δ280; 0.3 μM compound
  kobs: 9.9e-05 s⁻¹
Epac2^Δ280; 0.4 μM compound
  kobs: 0.000122 s⁻¹
Epac2^Δ280; 0.5 μM compound
  kobs: 0.000139 s⁻¹
Epac2^Δ280; 0.6 μM compound
  kobs: 0.000141 s⁻¹
Epac2^Δ280; 0.7 μM compound
  kobs: 0.000159 s⁻¹
Epac2^Δ280; 0.8 μM compound
  kobs: 0.000171 s⁻¹
Epac2^Δ280; 1 μM compound
  kobs: 0.000175 s⁻¹
Epac2^Δ280; 2 μM compound
  kobs: 0.000357 s⁻¹
Epac2^Δ280; 3 μM compound
  kobs: 0.000431 s⁻¹
Epac2^Δ280; 4 μM compound
  kobs: 0.000482 s⁻¹
Epac2^Δ280; 5 μM compound
  kobs: 0.000505 s⁻¹
Epac2^Δ280; 6 μM compound
  kobs: 0.000495 s⁻¹
Epac2^Δ280; 7 μM compound
  kobs: 0.000524 s⁻¹
Epac2^Δ280; 8 μM compound
  kobs: 0.000525 s⁻¹
Epac2^Δ280; 10 μM compound
  kobs: 0.000559 s⁻¹
Epac2^Δ280; 20 μM compound
  kobs: 0.0007 s⁻¹
Epac2^Δ280; 30 μM compound
  kobs: 0.000741 s⁻¹
Epac2^Δ280; 40 μM compound
  kobs: 0.000742 s⁻¹
Epac2^Δ280; 50 μM compound
  kobs: 0.000724 s⁻¹
Epac2^Δ280; 60 μM compound
  kobs: 0.000763 s⁻¹
Epac2^Δ280; 70 μM compound
  kobs: 0.000779 s⁻¹
Epac2^Δ280; 80 μM compound
  kobs: 0.000793 s⁻¹
Epac2^Δ280; 100 μM compound
  kobs: 0.000771 s⁻¹
Epac2^Δ280
  AC50: 2800 nM
  Rel. kmax: 2.5
Epac2^Δ280,K450E; 0.01 μM compound
  kobs: 4.6e-05 s⁻¹
Epac2^Δ280,K450E; 0.05 μM compound
  kobs: 6.3e-05 s⁻¹
Epac2^Δ280,K450E; 0.08 μM compound
  kobs: 7.4e-05 s⁻¹
Epac2^Δ280,K450E; 0.1 μM compound
  kobs: 8e-05 s⁻¹ and 9.8e-05 s⁻¹
Epac2^Δ280,K450E; 0.3 μM compound
  kobs: 0.000139 s⁻¹
Epac2^Δ280,K450E; 0.4 μM compound
  kobs: 0.000171 s⁻¹
Epac2^Δ280,K450E; 0.5 μM compound
  kobs: 0.000194 s⁻¹
Epac2^Δ280,K450E; 0.6 μM compound
  kobs: 0.000231 s⁻¹
Epac2^Δ280,K450E; 0.7 μM compound
  kobs: 0.000249 s⁻¹
Epac2^Δ280,K450E; 0.8 μM compound
  kobs: 0.000268 s⁻¹
Epac2^Δ280,K450E; 1 μM compound
  kobs: 0.000297 s⁻¹
Epac2^Δ280,K450E; 2 μM compound
  kobs: 0.000427 s⁻¹
Epac2^Δ280,K450E; 3 μM compound
  kobs: 0.000527 s⁻¹
Epac2^Δ280,K450E; 4 μM compound
  kobs: 0.000575 s⁻¹
Epac2^Δ280,K450E; 5 μM compound
  kobs: 0.000593 s⁻¹
Epac2^Δ280,K450E; 6 μM compound
  kobs: 0.000641 s⁻¹
Epac2^Δ280,K450E; 7 μM compound
  kobs: 0.000636 s⁻¹
Epac2^Δ280,K450E; 8 μM compound
  kobs: 0.00067 s⁻¹
Epac2^Δ280,K450E; 10 μM compound
  kobs: 0.000647 s⁻¹
Epac2^Δ280,K450E; 20 μM compound
  kobs: 0.000817 s⁻¹
Epac2^Δ280,K450E; 30 μM compound
  kobs: 0.000851 s⁻¹
Epac2^Δ280,K450E; 40 μM compound
  kobs: 0.00083 s⁻¹
Epac2^Δ280,K450E; 50 μM compound
  kobs: 0.000833 s⁻¹
Epac2^Δ280,K450E; 60 μM compound
  kobs: 0.000819 s⁻¹
Epac2^Δ280,K450E; 70 μM compound
  kobs: 0.000826 s⁻¹
Epac2^Δ280,K450E; 80 μM compound
  kobs: 0.000827 s⁻¹
Epac2^Δ280,K450E; 100 μM compound
  kobs: 0.000823 s⁻¹

## COC1C2OP(=O)(O)OCC2OC1n1c(Sc2ccc(Cl)cc2)nc2c(N)ncnc21 [D-007, 8-pCPT-2′-O-Me-cAMP, reference compound]
Epac2^Δ280
  AC50: 3500 nM
  Rel. kmax: 0.8
PKA-Iβ; PKA-Iβ, read-out: Kact
  EC50: 18000 nM
PKA-Iβ; concentration 1 μM
  A (PKA activity): 5.38 U/mg
PKA-Iβ; concentration 1.00E+01 μM
  A (PKA activity): 9.18 U/mg
PKA-Iβ; concentration 1.00E+03 μM
  A (PKA activity): 1.84E+01 U/mg
PKA-Iβ; concentration 1.00E-01 μM
  A (PKA activity): 5.43 U/mg
PKA-Iβ; concentration 1.00E-03 μM
  A (PKA activity): 4.7 U/mg
PKA-Iβ; concentration 1.00E-05 μM
  A (PKA activity): 4.53 U/mg
PKA-Iβ; concentration 2.50E+01 μM
  A (PKA activity): 1.31E+01 U/mg
PKA-Iβ; concentration 2.50E+02 μM
  A (PKA activity): 1.60E+01 U/mg
PKA-Iβ; concentration 2.50E+03 μM
  A (PKA activity): 1.79E+01 U/mg

## Nc1ncnc2c1nc(Sc1ccc(Cl)cc1)n2[C@@H]1O[C@@H]2COP(=O)(O)O[C@H]2[C@H]1O [L-026, 8-pCPT-cAMP]
Epac2^Δ280
  AC50: 80 nM
  Rel. kmax: 0.5
